Earlier results on four molecules are cited in patent US5462964A, “Dipeptide boronic acid inhibitors of trypsin-like enzymes” (The Du Pont Merck Pharmaceutical Company, priority 1993, dated 1995).

pKi: −log10 of the molar value.

As usually defined, the pKi is the Ki on a negative log10 scale, so that one unit is a factor of ten.

Data set [1] addresses T1, thrombin (Homo sapiens, UniProt P00734). Conditions: Kettner and Shaw Thromb. Res. 14, 969 (1979).
In data set [2] the target is T1, thrombin. Conditions: reversible inhibitor of thrombin; literature / EP 293 881.
Data set [3] addresses chymotrypsin (Bos taurus, UniProt P00766). Conditions: Matteson et al. J. Am. Chem. Soc. 103, 5241 (1981).
The subject of data set [4] is blood coagulation. Conditions: both in vitro and in vivo; EP 293 881.

Consider `CC(=O)NC(Cc1ccccc1)C(=O)N1CCCC1C(=O)NC(CCCNC(=N)N)C(=O)CCl` [Ac-D-Phe-Pro-ArgCH2 Cl], for which, in data set [1], the “inhibitor of human thrombin” value is “potent and selective irreversible inhibitor”.

For `CC(=O)N[C@H](Cc1ccccc1)C(=O)N1CCC[C@H]1C(=O)N[C@H](C=O)CCCNC(=N)N` [Ac-D-Phe-Pro-Arg-H], the pKi in data set [2] is 7.12.

`CC(=O)N[C@@H](Cc1ccccc1)B(O)O` [Ac-boroPhe-OH, (R)-1-acetamido-2-phenylethane boronic acid]: in data set [3], the pKi is 5.40.

`CC(=O)N[C@H](Cc1ccccc1)C(=O)N1CCC[C@H]1C(=O)N[C@@H](CCCN=C(N)N)B(O)O` [Ac-D-Phe-Pro-boroArgOH]: the “inhibition of blood coagulation” value in data set [4] is recorded as “highly effective”.
